Laboratory results published in patent publication US5631222A, “Endothelin-antagonizing peptide” (Kyowa Hakko Kogyo Co., Ltd., priority 1993, dated 1997).
Positions of bridges follow the written chain, without caps; N, C: chain ends. Non-standard residues stand in square brackets, D forms with d. Residues, ends and D or L forms follow the SMILES beside them. 2Thi = N[C@@H](Cc1cccs1)C(=O)O; Cha = N[C@@H](CC1CCCCC1)C(=O)O; NMeL = CN[C@@H](CC(C)C)C(=O)O; Phg = N[C@H](C(=O)O)c1ccccc1

How the values were obtained:
endothelin receptor = biological target: T1, endothelin receptor (Bos taurus, UniProt P28088); experiment: Endothelin receptor-antagonizing activity: inhibition of 125I-endothelin-1 binding to bovine cerebellum membrane fraction; conditions: 125I-Endothelin-1, bovine cerebellum membrane fraction, 25° C. for 2 hours; read-out: IC50: Concentration causing 50% inhibition of endothelin1 binding
T1 construct: the suspension was used as a membrane fraction liquid; from tissue; host or cells: bovine cerebellum membrane fraction
T1 sequence (P28088 27-441): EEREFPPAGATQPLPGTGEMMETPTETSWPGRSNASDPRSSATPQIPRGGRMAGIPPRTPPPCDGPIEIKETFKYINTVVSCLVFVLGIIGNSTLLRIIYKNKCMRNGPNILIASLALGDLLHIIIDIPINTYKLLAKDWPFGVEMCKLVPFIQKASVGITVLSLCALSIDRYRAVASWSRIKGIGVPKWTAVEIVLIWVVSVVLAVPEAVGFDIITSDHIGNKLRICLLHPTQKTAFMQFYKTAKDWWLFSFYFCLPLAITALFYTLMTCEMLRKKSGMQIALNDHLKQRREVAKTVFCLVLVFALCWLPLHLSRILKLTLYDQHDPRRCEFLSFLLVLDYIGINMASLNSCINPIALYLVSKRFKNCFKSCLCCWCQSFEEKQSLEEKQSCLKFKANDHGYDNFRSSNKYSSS
Procedure: Bovine cerebellum tissue was homogenized at 4° C. by using POLYTRON (type PT10/35, manufactured by Kinematic Gmbh Co.) in a buffer solution A (1 mM NaHCO3, 5 mM ethylenediaminetetraacetic acid, 5 μg/ml leupeptin, 5 μg/ml pepstatin A, 40 μM phenylmethylsulfonyl fluoride, pH 8.3).
The obtained suspension was centrifuged for 10 minutes at 8,000 G and 4° C., and the resulting supernatant was centrifuged for 60 minutes at 40,000 G and 4° C. to obtain pellets. The obtained pellets were suspended in a buffer solution A and again centrifuged for 60 minutes at 40,000 G and 4° C. The resulting solid substance was prepared as a suspension containing 2 mg/ml of protein, and the suspension was used as a membrane fraction liquid. […] These mixtures were incubated at 25° C. for 2 hours, and then filtered with a GF/B glass filter (produced by Whatman Co.). […] The inhibition ratio against endothelin receptor binding activity was calculated according to the following equation:
Inhibition ratio (%)=(C-A/C-B)×100
B: Radioactivity in the presence of unlabelled endothelin-1
C: Radioactivity in the absence of both of the compound shown in Table 2 and unlabelled endothelin-1

[1] = system: ET-1 contraction of rat thoracic aorta ring; experiment: Inhibitory effect on ET-1 contraction (ring specimen of extracted rat thoracic aorta); conditions: compound 10^-7 M, ET-1 3×10^-9 M, Sprague-Dawley rat thoracic aorta ring, tension relative to norepinephrine maximum
Procedure: Test Example 2: Inhibitory Effect On ET-1 Contraction (ring specimen of extracted rat thoracic aorta)
Male Sprague-Dawley rats (Slc. 450-550 g) were anesthetized by intravenous injection of 50 mg/kg of sodium pentobarbital (Nembutal™, Dynabot), and the heads thereof were then incised to die by bleeding. The breasts of the rats were then incised to extract the thoracic aortas therefrom. After the connective tissue which adhered to the blood vessels were removed in a nutrient solution, the blood vessels were cut into rings (3-4 mm), and two metallic holders (one of which was fixed to a support rod) were passed through the blood vessel to prepare a specimen. One end of the holder was mounted on a tension transducer (TB-611T, produced by Nihon Koden) through silk yarn, and the specimen was suspended in a Magnus' tube containing a nutrient solution. Resting tension (1.5 g) was applied to the specimen, and the nutrient solution was replaced several times until the tension was stabilized. Norepinephrine [(±) hydrochloride, Sigma] (10-20 μM) was then added, and the tension generated by contraction of the specimen was measured to determine the maximum value of the tension. The tension generated was detected by the tension transducer, amplified by a pressure strain amplifier (AP-621G, produced by Nihon Koden) and then recorded by a pen recorder (TYPE3066, YOKOGAWA). After the specimen was washed several times to remove Norepinephrine, each of the compounds shown in Table 3 which was dissolved in distilled water was added to the nutrient solution so that the concentration thereof was 10^-7 M, or only distilled water was added thereto in the same volume. […] After the specimens were allowed to stand for 10 minutes, ET-1 was successively added to the nutrient solutions so that the concentration thereof was 3×10^-9 M, and the tension of each of the specimens was measured. The relative value to the maximum tension previously determined was calculated, and the inhibitory effect (% inhibition) on contraction due to ET-1 was determined according to the following equation. […]

CC[C@H](C)[C@H](NC(=O)[C@H](Cc1cccs1)NC(=O)[C@@H](NC(=O)[C@H](CC(C)C)NC(=O)[C@H](Cc1c[nH]cn1)NC(=O)[C@H](C)NC(=O)[C@H](Cc1ccccc1)NC(=O)[C@H](Cc1ccc(O)cc1)NC(=O)[C@@H](NC(=O)[C@H](Cc1c[nH]c2ccccc12)NC(=O)[C@H](CC(=O)O)NC(=O)[C@@H]1CCCN1C(=O)[C@H](C)NC(=O)[C@@H](NC(=O)CNC(=O)[C@H](Cc1c[nH]cn1)NC(=O)[C@H](Cc1c[nH]c2ccccc12)NC(=O)[C@H](CC(N)=O)NC(=O)CN)[C@@H](C)O)C(C)C)[C@@H](C)O)C(=O)N[C@@H](Cc1c[nH]c2ccccc12)C(=O)O [Compound 17, HGlyAsnTrpHisGlyThrAlaProAspTrpValTyrPheAlaHisLeuThrThiIleTrpOH] (H-GNWHGTAPDWVYFAHLT[2Thi]IW-OH)
IC50 (endothelin receptor): 0.12 nM
% inhibition of contraction due to ET-1 [1]: 61.3%

H-GNWHGTAPDWVYFAHLSMIW-OH [Compound 21]
IC50 (endothelin receptor): 0.96 nM
% inhibition of contraction due to ET-1 [1]: 40.4%

CC[C@H](C)[C@H](NC(=O)[C@H](CC1CCCCC1)NC(=O)[C@@H](NC(=O)[C@H](CC(C)C)NC(=O)[C@H](Cc1c[nH]cn1)NC(=O)[C@H](C)NC(=O)[C@H](Cc1ccccc1)NC(=O)[C@H](Cc1ccc(O)cc1)NC(=O)[C@@H](NC(=O)[C@H](Cc1c[nH]c2ccccc12)NC(=O)[C@H](CC(=O)O)NC(=O)[C@@H]1CCCN1C(=O)[C@H](C)NC(=O)[C@@H](NC(=O)CNC(=O)[C@H](Cc1c[nH]cn1)NC(=O)[C@H](Cc1c[nH]c2ccccc12)NC(=O)[C@H](CC(N)=O)NC(=O)CN)[C@@H](C)O)C(C)C)[C@@H](C)O)C(=O)N[C@@H](Cc1c[nH]c2ccccc12)C(=O)O [Compound 14, HGlyAsnTrpHisGlyThrAlaProAspTrpValTyrPheAlaHisLeuThrChaIleTrpOH] (H-GNWHGTAPDWVYFAHLT[Cha]IW-OH)
IC50 (endothelin receptor): 12 nM
% inhibition of contraction due to ET-1 [1]: 47.0%

H-GNWHGTAPDWVYFAHLTLIW-OH [Compound 13]
IC50 (endothelin receptor): 2.9 nM

CC[C@H](C)[C@H](NC(=O)[C@H](CC(C)C)N(C)C(=O)[C@@H](NC(=O)[C@H](CC(C)C)NC(=O)[C@H](Cc1c[nH]cn1)NC(=O)[C@H](C)NC(=O)[C@H](Cc1ccccc1)NC(=O)[C@H](Cc1ccc(O)cc1)NC(=O)[C@@H](NC(=O)[C@H](Cc1c[nH]c2ccccc12)NC(=O)[C@H](CC(=O)O)NC(=O)[C@@H]1CCCN1C(=O)[C@H](C)NC(=O)[C@@H](NC(=O)CNC(=O)[C@H](Cc1c[nH]cn1)NC(=O)[C@H](Cc1c[nH]c2ccccc12)NC(=O)[C@H](CC(N)=O)NC(=O)CN)[C@@H](C)O)C(C)C)[C@@H](C)O)C(=O)N[C@@H](Cc1c[nH]c2ccccc12)C(=O)O [Compound 23, HGlyAsnTrpHisGlyThrAlaProAspTrpValTyrPheAlaHisLeuThrMeLeuIleTrpOH] (H-GNWHGTAPDWVYFAHLT[NMeL]IW-OH)
IC50 (endothelin receptor): 54 nM

H-GNWHGTAPDAVYFAHLDIIW-OH [Compound 4, HGlyAsnTrPHisGlyThrAlaProAspAlaValTyrPheAlaHisLeuAspIleIleTrpOH]
IC50 (endothelin receptor): 0.22 nM

CC[C@H](C)[C@H](NC(=O)[C@H](Cc1cccs1)NC(=O)[C@@H](NC(=O)[C@H](CC(C)C)NC(=O)[C@H](Cc1c[nH]cn1)NC(=O)[C@H](C)NC(=O)[C@H](Cc1ccccc1)NC(=O)[C@H](Cc1ccc(O)cc1)NC(=O)[C@@H](NC(=O)[C@H](Cc1c[nH]c2ccccc12)NC(=O)[C@H](CC(=O)O)NC(=O)[C@@H]1CCCN1C(=O)[C@H](C)NC(=O)[C@@H](NC(=O)CNC(=O)[C@H](Cc1c[nH]cn1)NC(=O)[C@H](Cc1c[nH]c2ccccc12)NC(=O)[C@H](CC(N)=O)NC(=O)CN)[C@@H](C)O)C(C)C)[C@@H](C)O)C(=O)N[C@H](Cc1c[nH]c2ccccc12)C(=O)O [Compound 42, HGlyAsnTrpHisGlyThrAlaProAspTrpValTyrPheAlaHisLeuThrThiIleD-TrpOH] (H-GNWHGTAPDWVYFAHLT[2Thi]I[dW]-OH)
IC50 (endothelin receptor): 210 nM

CC[C@H](C)[C@H](NC(=O)[C@H](CCSC)NC(=O)[C@H](CO)NC(=O)[C@H](CC(C)C)NC(=O)[C@H](Cc1c[nH]cn1)NC(=O)[C@H](C)NC(=O)[C@@H](Cc1ccccc1)NC(=O)[C@H](Cc1ccc(O)cc1)NC(=O)[C@@H](NC(=O)[C@H](Cc1c[nH]c2ccccc12)NC(=O)[C@H](CC(=O)O)NC(=O)[C@@H]1CCCN1C(=O)[C@H](C)NC(=O)[C@@H](NC(=O)CNC(=O)[C@H](Cc1c[nH]cn1)NC(=O)[C@H](Cc1c[nH]c2ccccc12)NC(=O)[C@H](CC(N)=O)NC(=O)CN)[C@@H](C)O)C(C)C)C(=O)N[C@@H](Cc1c[nH]c2ccccc12)C(=O)O [Compound 45, HGlyAsnTrpHisGlyThrAlaProAspTrpValTyrD-PheAlaHisLeuSerMetIleTrpOH] (H-GNWHGTAPDWVY[dF]AHLSMIW-OH)
IC50 (endothelin receptor): 3.3 nM

H-NWHGTAPDWVYFAHLDIIW-OH [Compound 7, HAsnTrpHisGlyThrAlaProAspTrpValTyrPheAlaHisLeuAspIleIleTrpOH]
IC50 (endothelin receptor): 0.1 nM

CC[C@H](C)[C@H](NC(=O)[C@@H](NC(=O)[C@@H](NC(=O)[C@H](CC(C)C)NC(=O)[C@H](Cc1c[nH]cn1)NC(=O)[C@H](C)NC(=O)[C@H](Cc1ccccc1)NC(=O)[C@H](Cc1ccc(O)cc1)NC(=O)[C@@H](NC(=O)[C@H](Cc1c[nH]c2ccccc12)NC(=O)[C@H](CC(=O)O)NC(=O)[C@@H]1CCCN1C(=O)[C@H](C)NC(=O)[C@@H](NC(=O)CNC(=O)[C@H](Cc1c[nH]cn1)NC(=O)[C@H](Cc1c[nH]c2ccccc12)NC(=O)[C@H](CC(N)=O)NC(=O)CN)[C@@H](C)O)C(C)C)[C@@H](C)O)c1ccccc1)C(=O)N[C@@H](Cc1c[nH]c2ccccc12)C(=O)O [Compound 25, HGlyAsnTrpHisGlyThrAlaProAspTrpValTyrPheAlaHisLeuThrPhgIleTrpOH] (H-GNWHGTAPDWVYFAHLT[Phg]IW-OH)
IC50 (endothelin receptor): 0.58 nM

H-GNWHGTAPDWFAHLDIIW-OH [Compound 11, HGlyAsnTrpHisGlyThrAlaProAspTrpPheAlaHisLeuAspIleIleTrpOH]
IC50 (endothelin receptor): 6.1 nM

CC[C@H](C)[C@H](NC(=O)[C@H](CC(C)C)NC(=O)[C@@H](NC(=O)[C@H](CC(C)C)NC(=O)[C@H](Cc1c[nH]cn1)NC(=O)[C@H](C)NC(=O)[C@H](Cc1ccccc1)NC(=O)[C@H](Cc1ccc(O)cc1)NC(=O)[C@@H](NC(=O)[C@H](Cc1c[nH]c2ccccc12)NC(=O)[C@@H]1CC(=O)NCC(=O)N[C@@H](CC(N)=O)C(=O)N[C@@H](Cc2c[nH]c3ccccc23)C(=O)N[C@@H](Cc2c[nH]cn2)C(=O)NCC(=O)N[C@@H]([C@@H](C)O)C(=O)N[C@@H](C)C(=O)N2CCC[C@H]2C(=O)N1)C(C)C)[C@@H](C)O)C(=O)N[C@@H](Cc1c[nH]c2ccccc12)C(=O)O [Compound 40] (GNWHGTAPDWVYFAHLTLIW-OH; lactam N-9)
IC50 (endothelin receptor): 34 nM
